Laboratory results as given in ChEMBL document CHEMBL3507680, “University of Dundee, Gates Library screen for HepG2 cell viability”.

Experiment: Human HepG2 cell viability assay in 384 well format
Assay type: toxicity, cell-based
Parameters: dose 125 nL, time 70.5 hour; cytotoxicity at 70.5 h: concentration not given beside the values
Settings: HepG2 cells, read-out: Inhibition

Row | SMILES | cytotoxicity at 70.5 h
1 | CC(C)Oc1cccc(C(=O)C2CCCN(C(=O)c3ccoc3)C2)c1 (stereo not given) | -9.57%
2 | CCN(CC)c1ncccc1CNC(=O)c1cnn(CC)c1 | -3.9%
3 | O=C(C1CCOCC1)N1C[C@H]2CC[C@@H]1CN(Cc1ccncc1)C2 | -6.05%
4 | Cc1ccc(C2(O)CCN(C(=O)CCn3c(C)cccc3=O)CC2)nc1 | 27.8%
5 | CC(C)(O)CCc1cccc(C(=O)N2Cc3cnn(CCO)c3C2)c1 | -17.1%
6 | COc1ccc(F)cc1-n1cnc(CCNC(C)=O)c1 | 16.3%
7 | Cc1nccc(N2C[C@H](NC(=O)CNS(C)(=O)=O)[C@@H](C3CC3)C2)n1 | -5%
8 | Cc1cc(C(=O)N2CCCC(O)(CN3CCCC3)C2)ccc1Cl (stereo not given) | 1.99%
9 | C[C@H](NC(=O)c1cnc(-c2ccccc2)nc1O)C(N)=O | -7.97%
10 | Cc1ccc(O)c(CN2CCCCC2CCN2CCOCC2)c1 (stereo not given) | -7.89%
11 | CCOCCn1nc(C)cc1C(=O)N1CC(C)(C)[C@@](C)(O)C1 | -2.57%
12 | CCc1nccc(CN2CCC(CNC(=O)Nc3ccccc3)C2)n1 (stereo not given) | 18.8%
13 | COc1ccc2c(c1)OCC(Cc1ccc(N)nc1C)C2 (stereo not given) | -8.63%
14 | FC(F)(F)CCc1ccnc(N2CCN(CCc3ccncc3)CC2)n1 | -6.22%
15 | COCCC1(C(=O)O)CCCN(C(=O)c2cc(F)ccc2OC)C1 (stereo not given) | -10.6%
16 | CC(C)c1cc(C(=O)N2CCCC3(CCNC3)C2)no1 (stereo not given) | -3.49%
17 | Cc1ccnc(CC(C)N(C)c2cc(C3CCNCC3)nc(C)n2)c1 (stereo not given) | -3%
18 | O=C1N(CCc2ccccc2)CCCC12CCN(C(CO)CO)C2 (stereo not given) | -4.14%
19 | COc1cccc(-n2cc(-c3ccnc(N[C@H](CO)C(C)C)n3)cn2)c1 | -2.44%
20 | Cc1nc2cc(CNC(=O)C3CC(=O)N(C4CCCC4)C3)ccc2n1C (stereo not given) | -7.58%
21 | CN(Cc1ccsc1)C(=O)C1CCC(=O)N(Cc2ccccn2)C1 (stereo not given) | -5.03%
22 | CCC(C(=O)N(C)C)N1CCC(c2nccn2Cc2cscn2)CC1 (stereo not given) | -10%
23 | COCc1nc(N(C)C/C=C/c2ccccc2)c2cnn(C)c2n1 | -8.43%
24 | CCCOCCN1CCN(c2ncnc3[nH]ccc23)CC1 | 1.69%
25 | OC[C@@H]1CCCN1c1ccc(-c2nc(CCc3ccccc3)no2)cn1 | -4.61%
26 | COCC(C)NCc1nc(-c2ccc(C)cc2)c(-c2ccccn2)[nH]1 (stereo not given) | -1.81%
27 | O=C(NCCCOc1cccnc1)c1cn(Cc2ccccc2F)nn1 | -12.2%

Row | SMILES | cytotoxicity at 70.5 h
28 | CCc1csc(CNC2CCN(c3ccc(C)cc3)CC2)n1 | 2.12%
29 | Cc1ccc(CNC(=O)CC2C(=O)NCCN2Cc2ccccc2C)s1 (stereo not given) | -0.0744%
30 | Cn1ccnc1CN(CCO)Cc1ccc(C(F)(F)F)cc1 | -6.45%
31 | Cc1noc(-c2ccc(N(C)Cc3nccs3)nc2)n1 | -9.04%
32 | CNS(=O)(=O)CCn1cc(-c2ccc(OC)c(OC)c2)nn1 | -4.16%
33 | Cc1ccccc1-n1cc(CNc2ncnc3c2CCNCC3)cn1 | -13.6%
34 | Cc1nc(N(C)C)ncc1C(=O)NCCc1csc(-c2ccncc2)n1 | -12.4%
35 | CCc1cc(N[C@H](C(N)=O)[C@@H](C)CC)n2nccc2n1 | -1.65%
36 | CCCc1nnc(NC2CCN(C3CCCC3)CC2)o1 | -12.5%
37 | COCc1ncc(CN2CCN(C)C(=O)C2C)cn1 (stereo not given) | -13.5%
38 | Cc1cc(CN(C)C2CCN(c3cccc(-c4cscn4)c3)CC2)on1 | -2.57%
39 | COCCN(C)C(C(=O)O)c1ccc(C)c(C)c1 (stereo not given) | 0.276%
40 | CC[C@@H](CO)NC(=O)c1cccc(CCC(C)(C)O)c1 | -6.14%
41 | Cc1ccc2c(-c3nc4c([nH]3)CCNC4C(=O)O)cccc2n1 (stereo not given) | -0.899%
42 | CNC(=O)C1CCN(c2nccc(CCC(F)(F)F)n2)C1 (stereo not given) | -3.72%
43 | O=C(O)c1ccccc1C1CCN(C2CCN(c3ccccc3)CC2)C1 (stereo not given) | 0.408%
44 | CC(=O)Nn1c(C)cc(CN2CCC(C(=O)N3CCCC3)CC2)c1C | -2.42%
45 | CC(C)N1CCCC(C(=O)N2CCN(c3nsc4ccccc34)CC2)C1 (stereo not given) | 1.52%
46 | Cc1nc[nH]c1-c1c(-c2ccccc2)ncn1C1CCNC1 (stereo not given) | -1.75%
47 | O=C(c1cnc(O)cn1)N1CCCC1c1nc2cc(F)ccc2[nH]1 (stereo not given) | -4.45%
48 | COCc1ccc(C(=O)N2CCN(CC=C(C)C)[C@@H]3CS(=O)(=O)C[C@@H]32)o1 | -0.472%
49 | CCCn1cc(-c2cc(-c3cnc(OC)nc3)c(C#N)c(N)n2)c(C)n1 | -7.45%
50 | CN(Cc1nccs1)C1CCN(c2ncccn2)CC1 | -8.38%
51 | CCC(Nc1nc(C)nc2onc(C)c12)c1nc(C)c(C)s1 (stereo not given) | 24.7%
52 | CSC(C)CCN1CCC(n2cc(C3CCCCC3)nn2)CC1 (stereo not given) | -1.37%
53 | c1cncc(OCCCNC2COc3ccccc3C2)c1 (stereo not given) | -3.91%
54 | Cc1cccnc1[C@H](C)NC(=O)c1cccc(CC2CCNCC2)c1 | 0.55%

Row | SMILES | cytotoxicity at 70.5 h
55 | CCN(CC)C(=O)[C@@H]1C[C@@H](NC(=O)c2ccoc2)CN1C | 25.9%
56 | Cn1ccc(NC(=O)CN2C[C@H]3CC[C@@H]2CN(S(C)(=O)=O)C3)n1 | 0.433%
57 | COCc1ncn(Cc2nc(-c3ccc(OC)c(OC)c3)oc2C)n1 | 27.5%
58 | COc1cccc(Cl)c1-c1cc(CN)ccc1F | -13.8%
59 | O=C(c1sccc1Cl)N1CCC(Cn2cc(CO)nn2)CC1 | -4.2%
60 | Cc1ccc(N2CCC(C(O)Cc3ccccc3)CC2)nn1 (stereo not given) | 1.34%
61 | NC(=O)COc1ccc(CN2CCC3(CC2)[C@H](O)C[C@@H]3O)cc1Cl | 19.2%
62 | COCCN(Cc1cccs1)C(=O)c1ccc(=O)n(C)c1 | -10.2%
63 | O=C(Nc1ccc2scnc2c1)N1CCN([C@H]2CCCC[C@@H]2O)CC1 | -13.6%
64 | Cc1n[nH]c(C)c1CCNC(=O)C1CCCN(CC(N)=O)C1 (stereo not given) | -1.91%
65 | Cc1cnc(C)c(N2CCC(c3nccn3Cc3cscn3)CC2)n1 | 14.9%
66 | CC(C)[C@@H]1CN(C(=O)c2ccc3c(c2)CCCO3)C[C@H]1NS(C)(=O)=O | -1.93%
67 | CCCSc1ncc(CN2CCN(C)C(=O)C2C)cn1 (stereo not given) | 20.3%
68 | Cc1[nH]c2ccc(CNc3cc(C(=O)NC(C)C)ccn3)cc2c1C | -1.62%
69 | Cc1cc(C(=O)N2CCC(CCn3cccn3)CC2)c(C)o1 | -5.22%
70 | COc1ccc(CN2CCC3(CCCN(C)C3=O)C2)c(OC)c1C (stereo not given) | -10.1%
71 | O=C(c1cccc(S(=O)(=O)NCCCn2cccn2)c1)N1CCOCC1 | -1.43%
72 | Cc1ncc(C(=O)N2CC[C@@]3(O)CCN(C(=O)N(C)C)C[C@H]3C2)cn1 | -12.2%
73 | COc1nc2c(cc1C(=O)NCc1nc(CSC)no1)CCC2 | -5.89%
74 | c1ccc(C2CCCN(c3ncnc4c3CCNC4)CC2)cc1 (stereo not given) | 2.81%
75 | CC(=O)N1CCc2[nH]cnc2C12CCN(C(=O)Cc1cccs1)CC2 | -9.66%
76 | Cc1nc(NC2CCS(=O)(=O)CC2)cc(C2CCCNC2)n1 (stereo not given) | -7.39%
77 | O=C(CCN1CCCCO1)NCCSc1cnn[nH]1 | -3.27%
78 | CNc1ccc(C)cc1C(=O)N[C@H]1C[C@H]2CN(C)CCN2C1 | -13.3%
79 | CCC(OC)C(=O)N1CCC2(CC1)c1nc[nH]c1CCN2S(C)(=O)=O (stereo not given) | 32.6%
80 | Cc1n[nH]c(CCC(=O)N2CCOC(Cc3ccc(F)cc3)C2)c1C (stereo not given) | 10.5%
